Consider 14 compounds from patent publication US9686985B2, “Fungicide N-cycloalkyl-N-bicyclicmethylene-carboxamide derivatives” (BAYER INTELLECTUAL PROPERTY GMBH, priority 2012, dated 2017).

Data set [1] is described as follows: log P by HPLC on reversed-phase column (EEC Directive 79/831 Annex V.A8). As to conditions: Table 1; HPLC C18, 40° C., 0.1% aqueous formic acid and acetonitrile gradient. Format: physicochemical. Here is the method: In table 1, the log P values were determined in accordance with EEC Directive 79/831 Annex V.A8 by HPLC (High Performance Liquid Chromatography) on a reversed-phase column (C 18), using the method described below: Temperature: 40° C.; Mobile phases: 0.1% aqueous formic acid and acetonitrile; linear gradient from 10% acetonitrile to 90% acetonitrile. Calibration was carried out using unbranched alkan-2-ones (comprising 3 to 16 carbon atoms) with known log P values (determination of the log P values by the retention times using linear interpolation between two successive alkanones). lambda-max-values were determined using UV-spectra from 200 nm to 400 nm and the peak values of the chromatographic signals.

Data set [2] concerns Pyrenophora teres. The data set is described as follows: Example N: in vivo preventive test on Pyrenophora teres (barley). As to conditions: table N; 500 ppm; barley plants; grading 14 days after contamination. As for the experimental part: Example N: In Vivo Preventive Test on Pyrenophora teres (Barley) […] Barley plants (“Plaisant” variety), sown in starter cups on a 50/50 peat soil pozzolana substrate and grown at 22° C., are treated at the 1 leaf stage (10 cm height) by spraying with the active ingredient prepared as described above. Plants, used as controls, are treated with the mixture of acetone/tween/DMSO/water not containing the active material. After 24 hours, the plants are contaminated by spraying the leaves with an aqueous suspension of Pyrenophora teres spores (12 000 spores per mL). The spores are collected from a 12-day-old culture. The contaminated barley plants are incubated for 48 hours at 20° C. and at 100% relative humidity, and then for 12 days at 20° C. at 70-80% relative humidity. Grading (% of efficacy) is carried out 14 days after the contamination, in comparison with the control plants.

The test system of data set [3] is Sphaerotheca fuliginea. The data set is described as follows: Example B: in vivo preventive test on Sphaerotheca fuliginea (powdery mildew on cucurbits). The conditions noted are these: table B; 500 ppm; gherkin plants; grading 12 days after contamination. Here is the method:
Example B: In Vivo Preventive Test on Sphaerotheca fuliginea (Powdery Mildew on Cucurbits) […] Gherkin plants (“Vert petit de Paris” variety), sown in starter cups on a 50/50 peat soil-pozzolana substrate and grown at 24° C., are treated at the Z11 cotyledon stage by spraying with the active ingredient prepared as described above. Plants, used as controls, are treated with the mixture of acetone/tween/DMSO/water not containing the active material. After 24 hours, the plants are contaminated by spraying the cotyledons with an aqueous suspension of Sphaerotheca fuliginea spores (100 000 spores per mL). The spores are collected from infected plants. The contaminated gherkin plants are incubated at about 20° C. and at 70-80% relative humidity. Grading (% of efficacy) is carried out 12 days after the contamination, in comparison with the control plants.

The test system of data set [4] is Uromyces appendiculatus. The data set is described as follows: Example G: in vivo preventive test on Uromyces appendiculatus (bean rust). As to conditions: bean plants. As for the experimental part: Example G: In Vivo Preventive Test on Uromyces appendiculatus (Bean Rust) […] Bean plants (“Saxa” variety), sown in starter cups on a 50/50 peat soil pozzolana substrate and grown at 24° C., are treated at the 2 leaf stage (9 cm height) by spraying with the active ingredient prepared as described above. Plants, used as controls, are treated with the mixture of acetone/tween/DMSO/water not containing the active material. After 24 hours, the plants are contaminated by spraying the leaves with an aqueous suspension of Uromyces appendiculatus spores (150 000 spores per mL). The spores are collected from infected plants and are suspended in water containing 2.5 mL/L of Tween 80 at 10%. The contaminated bean plants are incubated for 24 hours at 20° C. and at 100% relative humidity, and then for 10 days at 20° C. and at 70-80% relative humidity. Grading (% of efficacy) is carried out 11 days after the contamination, in comparison with the control plants.

Data set [5] concerns Puccinia recondita. The data set is described as follows: Example R: in vivo preventive test on Puccinia recondita (brown rust on wheat). As to conditions: table R; 500 ppm; wheat plants; grading 12 days after contamination. As for the experimental part:
Example R: In Vivo Preventive Test on Puccinia recondita (Brown Rust on Wheat) […] Wheat plants (“Scipion” variety), sown in starter cups on a 50/50 peat soil pozzolana substrate and grown at 22° C., are treated at the 1 leaf stage (10 cm height) by spraying with the active ingredient prepared as described above. Plants, used as controls, are treated with the mixture of acetone/tween/DMSO/water not containing the active material. After 24 hours, the plants are contaminated by spraying the leaves with an aqueous suspension of Puccinia recondita spores (100 000 spores per mL). The spores are collected from an infected plant and are suspended in water containing 2.5 mL/L of Tween 80 at 10%. The contaminated wheat plants are incubated for 24 hours at 20° C. and at 100% relative humidity, and then for 10 days at 20° C. and at 70-80% relative humidity. Grading (% of efficacy) is carried out 12 days after the contamination, in comparison with the control plants.

Data set [6] has as its system Alternaria brassicae. The data set is described as follows: Example D: in vivo preventive test on Alternaria brassicae (leaf spot on radish). The conditions noted are these: table D; 500 ppm; radish plants; grading 6 days after contamination. Here is the method: Example D: In Vivo Preventive Test on Alternaria brassicae (Leaf Spot on Radish) […] Radish plants (“Pernod Clair” variety), sown in starter cups on a 50/50 peat soil pozzolana substrate and grown at 17° C., are treated at the cotyledon stage by spraying with the active ingredient prepared as described above. Plants, used as controls, are treated with the mixture of acetone/tween/DMSO/water not containing the active material. After 24 hours, the plants are contaminated by spraying the cotyledons with an aqueous suspension of Alternaria brassicae spores (50 000 spores per mL). The spores are collected from a 15-day-old culture. The contaminated radish plants are incubated at 20° C. and at 100% relative humidity. Grading (% of efficacy) is carried out 6 days after the contamination, in comparison with the control plants.

For data set [7], the system named is Septoria tritici. In words: Example L: in vivo preventive test on Septoria tritici (wheat). As to conditions: table L; 500 ppm; wheat plants; grading 24 days after contamination. As for the experimental part: Example L: In Vivo Preventive Test on Septoria tritici (Wheat) […] Wheat plants (“Scipion” variety), sown in starter cups on a 50/50 peat soil pozzolana substrate and grown at 22° C., are treated at the 1 leaf stage (10 cm height) by spraying with the active ingredient prepared as described above. Plants, used as controls, are treated with the mixture of acetone/tween/DMSO/water not containing the active material. After 24 hours, the plants are contaminated by spraying the leaves with an aqueous suspension of cryopreserved Septoria tritici spores (500 000 spores per mL). The contaminated wheat plants are incubated for 72 hours at 18° C. and at 100% relative humidity, and then for 21 days at 90% relative humidity. Grading (% of efficacy) is carried out 24 days after the contamination, in comparison with the control plants.

The mark [8] stands for this setting: table G1, 500 ppm, grading 11 days after contamination.

On to `Cn1nc(C(F)F)c(C(=O)N(CC2CCc3ccccc32)C2CC2)c1Cl` (stereo not drawn) [I.1], for which the lipophilicity (logP) (as a rule, the decadic logarithm of the partition coefficient of the neutral form, usually between octanol and water) in data set [1] is listed as 3.51. For the same compound, the Efficacy in data set [2] turned out to be 86%; in data set [3], 83%; in data set [4] (setting [8]), 72%; in data set [5] it was 88%.
Take `Cn1nc(C(F)F)c(C(=O)N(CC2CCc3ccccc32)C2CC2)c1F` (stereo not drawn) [I.2]: in data set [1], the logP is recorded as 3.35. Besides, the Efficacy in data set [2] turned out to be 100%; in data set [3], 100%; in data set [6] it was 100%; in data set [7], 100%; in data set [4] (setting [8]) it was 100%; in data set [4] (table G2, dose 100 ppm), 88%. The Efficacy is recorded as 100% in data set [4] (table G2, dose 500 ppm) and 100% in data set [5].
In data set [1], `Cc1cccc2c1CCC2CN(C(=O)c1c(C(F)F)nn(C)c1Cl)C1CC1` (stereo not drawn) [I.4] had a lipophilicity (logP) of 3.87. The results for the Efficacy in data set [2], in data set [6] and in data set [7] were 71%, 75% and 79%, respectively.
Consider `Cc1ccc2c(c1)CCC2CN(C(=O)c1c(C(F)F)nn(C)c1Cl)C1CC1` (stereo not drawn) [I.5], for which the logP in data set [1] was found to be 3.94. Also, the Efficacy in data set [2] stood at 86%; in data set [3] it was 100%; in data set [5], 75%.
Take `Cc1ccc2c(c1)CCC2CN(C(=O)c1c(C(F)F)nn(C)c1F)C1CC1` (stereo not drawn) [I.6]: the logP in data set [1] amounted to 3.76. For the same compound, the Efficacy in data set [2] came to 100%; in data set [3], 100%; in data set [6], 97%; in data set [7], 97%; in data set [4] (setting [8]), 100%; in data set [4] (table G2, dose 100 ppm) it was 69%. The Efficacy in data set [4] (table G2, dose 500 ppm) worked out at 100%; in data set [5], 100%.
In data set [1], `Cn1nc(C(F)F)c(C(=O)N(CC2CCc3c(F)cccc32)C2CC2)c1F` (stereo not drawn) [I.7] registered a logP of 3.39. The Efficacy in data set [2] was determined as 97%; in data set [3] it was 100%; in data set [6], 97%; in data set [7], 93%; in data set [4] (setting [8]) it was 100%; in data set [4] (table G2, dose 100 ppm), 98%. In addition, the Efficacy came out at 100% in data set [4] (table G2, dose 500 ppm) and 94% in data set [5].
Consider `Cn1nc(C(F)F)c(C(=O)N(CC2CC(C)(C)c3ccccc32)C2CC2)c1F` (stereo not drawn) [I.9], for which, in data set [1], the logP was 3.94. In addition, the Efficacy in data set [2] is listed as 97%; in data set [3], 100%; in data set [6], 100%; in data set [7], 97%; in data set [4] (table G2, dose 100 ppm), 100%; in data set [5], 100%.
Turning to `Cn1nc(C(F)F)c(C(=O)N(CC2CC(C)(C)c3ccccc32)C2CC2)c1Cl` (stereo not drawn) [I.10], in data set [1], the logP was 4.08. In addition, the Efficacy in data set [2] was 86%; in data set [3] it was 100%; in data set [6] it was 92%; in data set [7], 79%; in data set [4] (setting [8]), 99%; in data set [5] it was 88%.
On to `Cn1nc(C(F)F)c(C(=O)N(CC2CCc3cc(Cl)ccc32)C2CC2)c1F` (stereo not drawn) [I.12], for which the logP in data set [1] is given as 3.83. Further, the Efficacy in data set [2] was 100%; in data set [3], 100%; in data set [6], 100%; in data set [7], 93%; in data set [4] (setting [8]), 100%; in data set [4] (table G2, dose 100 ppm) it was 19%. Further, the Efficacy in data set [4] (table G2, dose 500 ppm) turned out to be 100%; in data set [5], 81%.
On to `Cn1nc(C(F)F)c(C(=O)N(CC2CCc3cc(Cl)ccc32)C2CC2)c1Cl` (stereo not drawn) [I.13], for which the logP in data set [1] came out at 3.99. Moreover, the Efficacy in data set [2] was 86%; in data set [3], 78%; in data set [6] it was 75%.
Compound `Cn1nc(C(F)F)c(C(=O)N(CC2CCc3c(Cl)cc(Cl)cc32)C2CC2)c1F` (stereo not drawn) [I.18] yielded a logP in data set [1] of 4.39. Also, the Efficacy is recorded as 100% in data set [2]; 100% in data set [3]; 100% in data set [6]; 93% in data set [7]; 100% in data set [4] (setting [8]); 94% in data set [5].
In turn, `Cn1nc(C(F)F)c(C(=O)N(CC2CCc3c(Cl)cc(Cl)cc32)C2CC2)c1Cl` (stereo not drawn) [I.19] came in with a logP in data set [1] of 4.59. For the same compound, the Efficacy in data set [2] came to 71%; in data set [6] it was 92%; in data set [4] (setting [8]), 100%; in data set [5] it was 88%.
`CC1CCC(CN(C(=O)c2c(C(F)F)nn(C)c2Cl)C2CC2)c2ccccc21` (stereo not drawn) [I.25] came in with a logP in data set [1] of 4.11. Also, the Efficacy in data set [2] and in data set [6] was 94% in each case.
Take `COc1cccc2c1CCCC2CN(C(=S)c1c(C(F)F)nn(C)c1F)C1CC1` (stereo not drawn) [I.27]: in data set [1], the lipophilicity (logP) worked out at 4.46. For the same compound, the Efficacy in data set [2] was determined as 71%; in data set [3], 80%; in data set [6], 93%; in data set [7] it was 97%.
